Like-named read-outs stand apart in the source and are kept apart here.
Legend:
rat α4β2 nAChR subtype = target: T1, rat α4β2 nAChR subtype (Rattus norvegicus, UniProt P09483+P12390); test: Radioligand binding ([3H]nicotine) at rat α4β2 nAChR, rat cortex membranes; settings: read-out: Rat α4β2 Ki
T1 construct: Preparation of membranes from rat cortex; from tissue; host or cells: rat cerebral cortex membranes
Procedure: (§1) Preparation of membranes from rat cortex: Rats (female, Sprague-Dawley), weighing 150-250 g, were maintained on a 12 h light/dark cycle and were allowed free access to water and food supplied by PMI Nutrition International, Inc. Animals were anesthetized with 70% CO2, and then decapitated. Brains were removed and placed on an ice-cold platform. The cerebral cortex was removed and placed in 20 volumes (weight:volume) of ice-cold preparative buffer (137 mM NaCl, 10.7 mM KCl, 5.8 mM KH2PO4, 8 mM Na2HPO4, 20 mM HEPES (free acid), 5 mM iodoacetamide, 1.6 mM EDTA, pH 7.4); PMSF, dissolved in methanol to a final concentration of 100 μM, was added and the suspension was homogenized by Polytron. The homogenate was centrifuged at 18,000×g for 20 min at 4° C. and the resulting pellet was re-suspended in 20 volumes of ice-cold water. After 60 min incubation on ice, a new pellet was collected by centrifugation at 18,000×g for 20 min at 4° C. The final pellet was re-suspended in 10 volumes of buffer and stored at −20° C.
(§2) On the day of the assay, the frozen membranes were thawed and spun at 48,000×g for 20 min. The supernatant was decanted and discarded. The pellet was resuspended in Dulbecco's phosphate buffered saline (PBS, Life Technologies) pH 7.4 and homogenized with the Polytron for 6 seconds. Protein concentrations were determined using a Pierce BCA Protein Assay Kit, with bovine serum albumin as the standard (Pierce Chemical Company, Rockford, Ill.).
(§3) Incubation was terminated by rapid filtration on a multi-manifold tissue harvester (Brandel, Gaithersburg, Md.) using GF/B filters presoaked in 0.33% polyethyleneimine (w/v) to reduce non-specific binding. Tissue was rinsed 3 times in PBS, pH 7.4. Scintillation fluid was added to filters containing the washed tissue and allowed to equilibrate. Filters were then counted to determine radioactivity bound to the membranes by liquid scintillation counting (2200CA Tri-Carb LSC, Packard Instruments, 50% efficiency or Wallac Trilux 1450 MicroBeta, 40% efficiency, Perkin Elmer).
(§4) Data were expressed as disintegrations per minute (DPMs). Within each assay, each point had 2-3 replicates. The replicates for each point were averaged and plotted against the log of the drug concentration. IC50, which is the concentration of the compound that produces 50% inhibition of binding, was determined by least squares non-linear regression. Ki values were calculated using the Cheng-Prussof equation (1973): […]

human α4β2 nAChR subtype = target: T2, human α4β2 nAChR subtype (Homo sapiens, UniProt P17787+P43681); test: Radioligand binding ([3H]nicotine) at human α4β2 nAChR, SH-EP1/human α4β2 clonal cell membranes; settings: read-out: Human α4β2 Ki
T2 construct: expressed in transfected cells; host or cells: SH-EP1 clonal cells expressing human α4β2
T2 sequence (P43681 29-627 limits assumed): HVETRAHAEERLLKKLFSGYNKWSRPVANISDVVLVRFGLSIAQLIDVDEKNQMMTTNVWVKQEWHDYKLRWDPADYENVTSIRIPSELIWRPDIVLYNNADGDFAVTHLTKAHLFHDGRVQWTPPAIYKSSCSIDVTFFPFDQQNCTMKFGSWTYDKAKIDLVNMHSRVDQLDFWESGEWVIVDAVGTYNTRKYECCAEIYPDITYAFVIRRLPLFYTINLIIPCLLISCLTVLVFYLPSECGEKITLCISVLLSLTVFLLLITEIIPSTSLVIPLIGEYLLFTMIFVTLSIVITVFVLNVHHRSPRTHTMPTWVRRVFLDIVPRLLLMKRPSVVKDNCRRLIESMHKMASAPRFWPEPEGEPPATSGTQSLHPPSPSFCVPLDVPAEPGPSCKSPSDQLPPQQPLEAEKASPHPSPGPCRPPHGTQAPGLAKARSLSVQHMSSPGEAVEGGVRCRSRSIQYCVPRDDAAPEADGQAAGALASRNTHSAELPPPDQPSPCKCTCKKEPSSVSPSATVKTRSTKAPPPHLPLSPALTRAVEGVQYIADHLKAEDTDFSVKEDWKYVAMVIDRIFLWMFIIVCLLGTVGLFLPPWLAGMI
T2 sequence (P17787 26-502): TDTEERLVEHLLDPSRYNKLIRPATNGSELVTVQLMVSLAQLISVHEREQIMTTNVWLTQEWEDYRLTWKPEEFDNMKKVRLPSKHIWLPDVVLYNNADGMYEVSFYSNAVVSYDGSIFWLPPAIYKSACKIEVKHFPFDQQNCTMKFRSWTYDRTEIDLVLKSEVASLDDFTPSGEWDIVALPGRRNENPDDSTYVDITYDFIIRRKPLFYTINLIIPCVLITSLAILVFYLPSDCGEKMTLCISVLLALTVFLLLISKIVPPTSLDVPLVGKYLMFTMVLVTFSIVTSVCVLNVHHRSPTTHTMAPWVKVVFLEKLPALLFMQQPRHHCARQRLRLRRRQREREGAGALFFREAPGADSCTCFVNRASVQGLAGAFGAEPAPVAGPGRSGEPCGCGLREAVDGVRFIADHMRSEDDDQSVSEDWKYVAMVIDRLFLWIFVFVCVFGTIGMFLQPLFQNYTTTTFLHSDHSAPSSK
Procedure: Preparation of membranes from SH-EP1/human α4β2 clonal cells: Cell pellets from 40 150 mm culture dishes were pooled, and homogenized by Polytron (Kinematica GmbH, Switzerland) in 20 milliliters of ice-cold preparative buffer. The homogenate was centrifuged at 48,000 g for 20 minutes at 4° C. The resulting pellet was re-suspended in 20 mL of ice-cold preparative buffer and stored at −20° C.
as §2, §3, §4

rat α7 nAChR subtype = target: T3, rat α7 nAChR subtype (Rattus norvegicus, UniProt Q05941); test: Radioligand binding ([3H]MLA) at α7 nAChR, rat hippocampus membranes
T3 construct: Preparation of membranes from rat hippocampus; from tissue; host or cells: rat hippocampus membranes
T3 sequence (Q05941 23-502): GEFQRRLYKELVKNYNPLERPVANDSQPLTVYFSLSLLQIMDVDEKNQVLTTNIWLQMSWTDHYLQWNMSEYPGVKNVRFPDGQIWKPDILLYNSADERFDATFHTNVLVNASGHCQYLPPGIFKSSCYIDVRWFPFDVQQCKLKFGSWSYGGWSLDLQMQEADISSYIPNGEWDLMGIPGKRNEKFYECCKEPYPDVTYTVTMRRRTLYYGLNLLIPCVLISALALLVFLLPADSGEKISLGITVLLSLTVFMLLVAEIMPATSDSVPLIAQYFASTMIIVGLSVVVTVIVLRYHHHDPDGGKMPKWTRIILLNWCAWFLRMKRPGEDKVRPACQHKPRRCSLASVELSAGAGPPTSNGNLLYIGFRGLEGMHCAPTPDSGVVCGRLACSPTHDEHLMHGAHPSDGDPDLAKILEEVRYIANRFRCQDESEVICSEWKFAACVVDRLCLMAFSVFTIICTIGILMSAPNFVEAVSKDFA
Procedure: as §1, with “from rat hippocampus: Rats (female,” for “from rat cortex: Rats (female,”, “70% CO2, then decapitated.” for “70% CO2, and then decapitated.”, “platform. The hippocampus was removed” for “platform. The cerebral cortex was removed”, “placed in 10 volumes (weight:volume)” for “placed in 20 volumes (weight:volume)”, “and the tissue suspension was” for “and the suspension was”, “re-suspended in 10 volumes of” for “re-suspended in 20 volumes of”
On the day of the assay, tissue was thawed, centrifuged at 18,000×g for 20 min, and then re-suspended in ice-cold PBS (Dulbecco's Phosphate Buffered Saline, 138 mM NaCl, 2.67 mM KCl, 1.47 mM KH2PO4, 8.1 mM Na2HPO4, 0.9 mM CaCl2, 0.5 mM MgCl2, Invitrogen/Gibco, pH 7.4) to a final concentration of approximately 2 mg protein/mL. Protein was determined by the method of Lowry et al., J. Biol. Chem. 193: 265 (1951), herein incorporated by reference, using bovine serum albumin as the standard.
Assay: The binding of [^3H]MLA was measured using a modification of the methods of Davies et al., Neuropharmacol. 38: 679 (1999), herein incorporated by reference. [^3H]MLA (Specific Activity=25-35 Ci/mmol) was obtained from Tocris. The binding of [^3H]MLA was determined using a 2 h incubation at 21° C. Incubations were conducted in 48-well micro-titre plates and contained about 200 μg of protein per well in a final incubation volume of 300 μL. The incubation buffer was PBS and the final concentration of [^3H]MLA was 5 nM. The binding reaction was terminated by filtration of the protein containing bound ligand onto glass fiber filters (GF/B, Brandel) using a Brandel Tissue Harvester at room temperature. Filters were soaked in de-ionized water containing 0.33% polyethyleneimine to reduce non-specific binding. Each filter was washed with PBS (3×1 mL) at room temperature. Non-specific binding was determined by inclusion of 50 μM non-radioactive MLA in selected wells.
The inhibition of [^3H]MLA binding by test compounds was determined by including seven different concentrations of the test compound in selected wells. Each concentration was replicated in triplicate. IC50 values were estimated as the concentration of compound that inhibited 50 percent of specific [^3H]MLA binding. Inhibition constants (Ki values), reported in nM, were calculated from the IC50 values using the method of Cheng et al., Biochem. Pharmacol. 22: 3099-3108 (1973), herein incorporated by reference.

[1] = rat hippocampus membranes, 5 nM [3H]MLA, read-out: Rat α7 Ki

T1 sequence (P09483 31-630): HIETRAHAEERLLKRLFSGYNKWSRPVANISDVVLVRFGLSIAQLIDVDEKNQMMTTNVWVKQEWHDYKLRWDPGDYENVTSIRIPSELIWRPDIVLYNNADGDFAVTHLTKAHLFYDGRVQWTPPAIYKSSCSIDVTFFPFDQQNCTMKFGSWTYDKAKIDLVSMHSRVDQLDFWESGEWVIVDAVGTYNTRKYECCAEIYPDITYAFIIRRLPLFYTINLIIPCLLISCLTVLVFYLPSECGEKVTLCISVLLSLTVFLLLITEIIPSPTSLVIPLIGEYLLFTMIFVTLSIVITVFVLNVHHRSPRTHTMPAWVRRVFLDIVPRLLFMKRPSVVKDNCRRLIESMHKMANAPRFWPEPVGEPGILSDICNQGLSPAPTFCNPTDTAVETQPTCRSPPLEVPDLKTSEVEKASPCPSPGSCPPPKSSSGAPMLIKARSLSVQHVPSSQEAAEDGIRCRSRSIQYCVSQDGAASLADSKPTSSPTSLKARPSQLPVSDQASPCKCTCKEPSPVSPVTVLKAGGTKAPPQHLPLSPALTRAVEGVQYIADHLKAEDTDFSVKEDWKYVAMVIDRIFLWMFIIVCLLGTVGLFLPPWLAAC
T1 sequence (P12390 25-500): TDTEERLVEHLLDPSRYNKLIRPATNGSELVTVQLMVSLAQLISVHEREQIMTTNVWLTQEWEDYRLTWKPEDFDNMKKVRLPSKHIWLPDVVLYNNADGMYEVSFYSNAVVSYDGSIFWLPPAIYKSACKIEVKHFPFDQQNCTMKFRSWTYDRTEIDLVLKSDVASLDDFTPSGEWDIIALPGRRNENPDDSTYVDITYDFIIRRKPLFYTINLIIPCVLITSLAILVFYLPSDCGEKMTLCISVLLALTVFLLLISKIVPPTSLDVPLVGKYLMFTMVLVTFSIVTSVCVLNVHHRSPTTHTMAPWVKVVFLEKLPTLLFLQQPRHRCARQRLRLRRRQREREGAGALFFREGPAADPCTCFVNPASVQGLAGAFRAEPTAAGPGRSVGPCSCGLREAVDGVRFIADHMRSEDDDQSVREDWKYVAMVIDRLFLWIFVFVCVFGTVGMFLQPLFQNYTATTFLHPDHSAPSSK

Row | SMILES | Ki (rat α4β2 nAChR subtype) | Ki (human α4β2 nAChR subtype) | Ki (rat α7 nAChR subtype) | Ki (rat α7 nAChR subtype; [1])
1 | O=C(C1CC=CC1)N1CC2CNC(C2)C1 (stereo not drawn) | 11 nM | 13 nM | 64 nM | –
2 | O=C(C1CC1)N1CC2CNC(C2)C1 (stereo not drawn) | 1.3 nM | 1.5 nM | – | 290 nM
3 | O=C(C1CC1)N1C[C@@H]2CN[C@@H](C2)C1 | 14 nM | 7.3 nM | 98 nM | –
4 | O=C(C1CC1)N1C[C@H]2CN[C@H](C2)C1 | 0.5 nM | 0.8 nM | – | 190 nM
5 | O=C(C1CC=CC1)N1C[C@H]2CN[C@H](C2)C1 | 5.5 nM | 4.4 nM | 65 nM | –
6 | O=C(C1CCC1)N1C[C@@H]2CN[C@@H](C2)C1 | 14 nM | 13 nM | 370 nM | –
7 | O=C(C1CCC1)N1C[C@H]2CN[C@H](C2)C1 | 2.2 nM | 1.6 nM | 440 nM | –
8 | CCC(=O)N1C[C@@H]2CN[C@@H](C2)C1 | 30 nM | 24 nM | 2000 nM | –
9 | CCCC(=O)N1C[C@@H]2CN[C@@H](C2)C1 | 18 nM | 18 nM | 160 nM | –
10 | CC(C)C(=O)N1C[C@@H]2CN[C@@H](C2)C1 | 380 nM | 380 nM | 220 nM | –
11 | O=C(C1CCCC1)N1C[C@@H]2CN[C@@H](C2)C1 | 130 nM | 160 nM | – | 130 nM
12 | CC1CC1C(=O)N1C[C@@H]2CN[C@@H](C2)C1 (stereo partly drawn) | 4.8 nM | 6.8 nM | 460 nM | –
13 | O=C(C1CC1(F)F)N1C[C@@H]2CN[C@@H](C2)C1 (stereo partly drawn) | 11 nM | 11 nM | – | 670 nM
14 | CCOC(=O)N1C[C@H]2CN[C@H](C2)C1 | 11 nM | 15 nM | 4200 nM | –
15 | O=C(CCF)N1C[C@@H]2CN[C@@H](C2)C1 | 31 nM | 27 nM | – | 950 nM
16 | CCOC(=O)N1C[C@@H]2CNC[C@H]1C2 | 32 nM | 78 nM | > 10000 nM | –
17 | O=C([C@H]1C[C@H]1F)N1C[C@H]2CNC[C@@H]1C2 | 170 nM | 68 nM | 1300 nM | –

Reference: US20110263629A1, “AMIDES OF DIAZABICYCLOOCTANES AND USES THEREOF” (Targacept, Inc., priority 2008, published 2011)
